Measurements taken from ChEMBL document CHEMBL1122959, “3-Hydroxy-3-methylglutaryl-coenzyme A reductase inhibitors. 1. Structural modification of 5-substituted 3,5-dihydroxypentanoic acids and their lactone derivatives” (J Med Chem, 1985).
Values belong to the compound of their own block, whether it stands above or below them.

Tests used:
[1] = target: T1, 3-hydroxy-3-methylglutaryl-coenzyme A reductase (Rattus norvegicus) (UniProt P51639); test: Inhibitory activity against partially purified rat liver HMG CoA reductase at 3.125 ug/ml concentration
T1 sequence (whole entry): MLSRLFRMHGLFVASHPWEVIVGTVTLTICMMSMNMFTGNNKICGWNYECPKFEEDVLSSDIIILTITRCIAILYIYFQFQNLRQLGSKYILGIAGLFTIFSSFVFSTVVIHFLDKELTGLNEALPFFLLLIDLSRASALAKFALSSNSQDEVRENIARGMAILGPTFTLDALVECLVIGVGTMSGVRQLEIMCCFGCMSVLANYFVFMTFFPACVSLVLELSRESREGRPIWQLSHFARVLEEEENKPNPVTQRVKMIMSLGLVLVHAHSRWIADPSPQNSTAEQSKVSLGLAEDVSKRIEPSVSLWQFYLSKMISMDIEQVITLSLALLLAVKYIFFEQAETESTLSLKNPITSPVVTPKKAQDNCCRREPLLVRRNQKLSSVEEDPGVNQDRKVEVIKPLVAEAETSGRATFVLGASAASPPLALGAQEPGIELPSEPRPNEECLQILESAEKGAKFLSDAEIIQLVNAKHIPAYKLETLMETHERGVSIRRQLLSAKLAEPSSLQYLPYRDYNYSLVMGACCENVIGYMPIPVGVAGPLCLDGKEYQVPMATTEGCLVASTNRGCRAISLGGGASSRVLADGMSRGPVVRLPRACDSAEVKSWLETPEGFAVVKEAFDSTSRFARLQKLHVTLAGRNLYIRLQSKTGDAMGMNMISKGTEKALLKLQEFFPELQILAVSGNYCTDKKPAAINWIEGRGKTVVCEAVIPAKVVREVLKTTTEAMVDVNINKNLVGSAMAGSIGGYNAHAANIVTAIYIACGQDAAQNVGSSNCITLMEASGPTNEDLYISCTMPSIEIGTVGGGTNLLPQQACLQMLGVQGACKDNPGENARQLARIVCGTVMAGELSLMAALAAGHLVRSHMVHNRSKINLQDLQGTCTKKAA

[2] = target: T1, 3-hydroxy-3-methylglutaryl-coenzyme A reductase (Rattus norvegicus); test: Inhibitory activity against partially purified rat liver HMG CoA reductase at 0.625 ug/ml concentration
[3] = target: T1, 3-hydroxy-3-methylglutaryl-coenzyme A reductase (Rattus norvegicus); test: Inhibitory activity against partially purified rat liver HMG CoA reductase at 6 ug/ml concentration
[4] = target: T1, 3-hydroxy-3-methylglutaryl-coenzyme A reductase (Rattus norvegicus); test: Inhibitory activity against partially purified rat liver HMG CoA reductase at 4 ug/ml concentration
[5] = target: T1, 3-hydroxy-3-methylglutaryl-coenzyme A reductase (Rattus norvegicus); test: Inhibitory activity against partially purified rat liver HMG CoA reductase at 2 ug/ml concentration
[6] = target: T1, 3-hydroxy-3-methylglutaryl-coenzyme A reductase (Rattus norvegicus); test: Inhibitory activity against partially purified rat liver HMG CoA reductase at 25 ug/ml concentration
[7] = target: T1, 3-hydroxy-3-methylglutaryl-coenzyme A reductase (Rattus norvegicus); test: Inhibitory activity against partially purified rat liver HMG CoA reductase at 5 ug/ml concentration
[8] = target: T1, 3-hydroxy-3-methylglutaryl-coenzyme A reductase (Rattus norvegicus); test: Inhibition of partially purified rat liver HMG CoA reductase at 10 ug/ml concentration
[9] = target: T1, 3-hydroxy-3-methylglutaryl-coenzyme A reductase (Rattus norvegicus); test: Inhibitory activity against partially purified rat liver HMG CoA reductase at 8 ug/ml concentration
[10] = target: T1, 3-hydroxy-3-methylglutaryl-coenzyme A reductase (Rattus norvegicus); test: Inhibitory activity against partially purified rat liver HMG CoA reductase at 20 ug/ml concentration
[11] = target: T1, 3-hydroxy-3-methylglutaryl-coenzyme A reductase (Rattus norvegicus); test: Inhibitory activity against partially purified rat liver HMG CoA reductase at 50 ug/ml concentration
[12] = target: T1, 3-hydroxy-3-methylglutaryl-coenzyme A reductase (Rattus norvegicus); test: Inhibitory activity against partially purified rat liver HMG CoA reductase at 0.8 ug/ml concentration
[13] = target: T2, 3-hydroxy-3-methylglutaryl-coenzyme A reductase (Rattus norvegicus, UniProt P51639); test: In vitro inhibitory activity against HMG CoA reductase
T2 sequence (P51639 whole entry): T1 sequence (whole entry)

[14] = target: T1, 3-hydroxy-3-methylglutaryl-coenzyme A reductase (Rattus norvegicus); test: Inhibitory activity against partially purified rat liver HMG CoA reductase at 0.2 ug/ml concentration
[15] = target: T1, 3-hydroxy-3-methylglutaryl-coenzyme A reductase (Rattus norvegicus); test: Inhibitory activity against partially purified rat liver HMG CoA reductase at 0.1 ug/ml concentration
[16] = target: T1, 3-hydroxy-3-methylglutaryl-coenzyme A reductase (Rattus norvegicus); test: Relative potency against HMG CoA reductase
[17] = target: T1, 3-hydroxy-3-methylglutaryl-coenzyme A reductase (Rattus norvegicus); conditions: 1.4 ug/ml
Description: Inhibitory activity against partially purified rat liver HMG CoA reductase at 1.4 ug/ml concentration

[18] = target: T1, 3-hydroxy-3-methylglutaryl-coenzyme A reductase (Rattus norvegicus); test: Inhibitory activity against partially purified rat liver HMG CoA reductase at 1 ug/ml concentration
[19] = target: T1, 3-hydroxy-3-methylglutaryl-coenzyme A reductase (Rattus norvegicus); test: Inhibitory activity against partially purified rat liver HMG CoA reductase at 0.4 ug/ml concentration
[20] = target: T1, 3-hydroxy-3-methylglutaryl-coenzyme A reductase (Rattus norvegicus); test: Inhibitory activity against partially purified rat liver HMG CoA reductase at 1 ug/mL concentration
[21] = target: T1, 3-hydroxy-3-methylglutaryl-coenzyme A reductase (Rattus norvegicus); test: Inhibitory activity against partially purified rat liver HMG CoA reductase at 12.5 ug/ml concentration
[22] = target: T1, 3-hydroxy-3-methylglutaryl-coenzyme A reductase (Rattus norvegicus); test: Inhibitory activity against partially purified rat liver HMG CoA reductase at 4 ug/mL concentration
[23] = target: T1, 3-hydroxy-3-methylglutaryl-coenzyme A reductase (Rattus norvegicus); test: Inhibitory activity against partially purified rat liver HMG CoA reductase at 0.35 ug/ml concentration
[24] = target: T1, 3-hydroxy-3-methylglutaryl-coenzyme A reductase (Rattus norvegicus); test: Inhibitory activity against partially purified rat liver HMG CoA reductase at 0.75 ug/ml concentration
[25] = target: T1, 3-hydroxy-3-methylglutaryl-coenzyme A reductase (Rattus norvegicus); test: Inhibitory activity against partially purified rat liver HMG CoA reductase at 1.0 ug/ml concentration

inhibition [3]: 4%
inhibition [4]: 2%
inhibition [5]: 0%
SMILES: CO[C@H]1C[C@H](O)C[C@@H](/C=C/c2ccc(Cl)cc2Cl)O1

inhibition [9]: 6%
inhibition [4]: 0%
inhibition [8]: 0%
inhibition [5]: 0%
SMILES: CO[C@@H]1C[C@H](O)C[C@@H](/C=C/c2ccc(Cl)cc2Cl)O1

inhibition [9]: 0%
inhibition [4]: 0%
inhibition [18]: 0%
inhibition [5]: 0%
SMILES: O=C1C[C@H](O)C[C@@H](/C=C/c2ccc(Cl)cc2Cl)O1 (stereo in doubt; 6a(-))

inhibition [10]: 86%
Relative potency [16]: 0.16
inhibition [7]: 66%
inhibition [18]: 26%
inhibition [8]: 72%
inhibition [5]: 45%
SMILES: O=C1C[C@H](O)C[C@@H](/C=C/c2ccc(Cl)cc2Cl)O1 (stereo in doubt; 6a(+)) [listing 1 of 2 here]

inhibition [6]: 5%
inhibition [4]: 3%
inhibition [8]: 3%
inhibition [5]: 0%
SMILES: CC1=CC(=O)OC(/C=C/c2ccc(Cl)cc2Cl)C1 (stereo unspecified)

IC50 [13]: 10.8 µM
SMILES: O=C1C[C@H](O)C[C@@H](/C=C/c2ccc(Cl)cc2Cl)O1 (stereo in doubt; 6a(+)) [listing 2 of 2 here]

inhibition [10]: 27%
inhibition [11]: 23%
inhibition [7]: 4%
inhibition [8]: 26%
SMILES: O=C1C[C@H](O)CC(c2ccc(Cl)cc2Cl)O1 (stereo partly specified)

inhibition [10]: 84%
Relative potency [16]: 0.08
inhibition [7]: 41%
inhibition [18]: 13%
inhibition [8]: 64%
SMILES: O=C1C[C@H](O)C[C@@H](/C=C/c2ccc(Cl)cc2Cl)O1 (racemic) [listing 1 of 2 here]

inhibition [10]: 17%
inhibition [11]: 18%
inhibition [7]: 6%
inhibition [8]: 27%
inhibition [5]: 4%
SMILES: O=C1C[C@@H](O)C[C@@H](/C=C/c2ccc(Cl)cc2Cl)O1 (racemic)

inhibition [6]: 15%
inhibition [4]: 7%
inhibition [8]: 5%
inhibition [5]: 3%
SMILES: C[C@@]1(O)CC(=O)O[C@H](/C=C/c2ccc(Cl)cc2Cl)C1

IC50 [13]: 22 µM
SMILES: O=C1C[C@H](O)C[C@@H](/C=C/c2ccc(Cl)cc2Cl)O1 (racemic) [listing 2 of 2 here]

IC50 [13]: 15.2 µM
inhibition [7]: 57%
inhibition [18]: 29%
inhibition [8]: 80%
inhibition [5]: 38%
SMILES: O=C1C[C@H](O)C[C@@H](CCc2ccc(Cl)cc2Cl)O1

inhibition [20]: 0%
inhibition [7]: 0%
inhibition [8]: 0%
inhibition [5]: 0%
SMILES: COC(/C=C/c1ccc(Cl)cc1Cl)CC(O)CC(=O)O (stereo unspecified)

inhibition [9]: 0%
inhibition [22]: 0%
inhibition [18]: 0%
inhibition [5]: 0%
SMILES: NC(=O)C[C@H](O)C[C@H](O)/C=C/c1ccc(Cl)cc1Cl

inhibition [4]: 18%
inhibition [18]: 21%
inhibition [8]: 21%
inhibition [5]: 24%
SMILES: O=C1C[C@H](O)C[C@@H](COc2ccc(Cl)cc2Cl)O1

inhibition [1]: 0%
inhibition [2]: 0%
SMILES: O=C1C[C@@H](O)C[C@H](/C=C\c2ccc(Cl)cc2Cl)O1

inhibition [9]: 63%
IC50 [13]: 19.8 µM
Relative potency [16]: 0.08
inhibition [4]: 37%
inhibition [18]: 14%
inhibition [5]: 26%
SMILES: C[C@]1(O)CC(=O)O[C@H](CCc2ccc(Cl)cc2Cl)C1

IC50 [13]: 20 µM
Relative potency [16]: 0.09
inhibition [4]: 36%
inhibition [18]: 11%
inhibition [8]: 61%
inhibition [5]: 21%
SMILES: C[C@]1(O)CC(=O)O[C@H](/C=C/c2ccc(Cl)cc2Cl)C1

inhibition [11]: 15%
inhibition [8]: 12%
inhibition [5]: 0%
SMILES: O=C1C=C(O)OC(/C=C/c2ccc(Cl)cc2Cl)C1 (stereo unspecified)

Second part, the compound before the results:

SMILES: O=C1C[C@H](O)C[C@@H](C#Cc2ccc(Cl)cc2Cl)O1
inhibition [1]: 8%
inhibition [2]: 0%

SMILES: O=C1C[C@H](O)CC(CCCc2cccc3ccccc23)O1 (stereo partly specified)
inhibition [6]: 35%
inhibition [7]: 7%
inhibition [8]: 25%
inhibition [5]: 11%

SMILES: O=C1C[C@H](O)C[C@@H](C2CCCCC2)O1
inhibition [10]: 6%
inhibition [11]: 36%
inhibition [7]: 1%
inhibition [8]: 0%

SMILES: O=C1C[C@H](O)C[C@@H](C=C2c3ccccc3-c3ccccc32)O1
inhibition [12]: 81%
IC50 [13]: 0.89 µM
inhibition [14]: 48%
inhibition [15]: 25%
Relative potency [16]: 1.5
inhibition [17]: 61%

SMILES: O=C1C[C@H](O)C[C@@H](CC[C@@H]2CCC[C@@H]3CCCC[C@@H]32)O1
inhibition [10]: 44%
IC50 [13]: 107 µM
inhibition [11]: 70%
inhibition [7]: 15%
inhibition [8]: 22%

SMILES: CC[C@H](C)C(=O)O[C@H]1CCC=C2C=C[C@H](C)[C@H](CC[C@@H]3C[C@@H](O)CC(=O)O3)[C@H]21 [MEVASTATIN]
IC50 [13]: 0.01 µM
Relative potency [16]: 100

SMILES: O=C1C[C@H](O)CC(CCc2cccc3ccccc23)O1 (stereo partly specified)
inhibition [10]: 45%
IC50 [13]: 129 µM
inhibition [11]: 61%
inhibition [7]: 19%
inhibition [8]: 29%

SMILES: O=C1C[C@H](O)C[C@@H](/C=C/c2ccccc2)O1
inhibition [10]: 14%
inhibition [11]: 31%
inhibition [7]: 3%
inhibition [8]: 15%

SMILES: O=C1C[C@H](O)CC(C=C(c2ccccc2)c2ccccc2)O1 (stereo partly specified)
inhibition [12]: 20%
inhibition [19]: 14%
inhibition [14]: 36%
inhibition [15]: 22%

SMILES: O=C1C[C@H](O)C[C@@H](C=C2c3ccccc3C=Cc3ccccc32)O1
IC50 [13]: 1.6 µM
inhibition [19]: 42%
inhibition [14]: 34%
inhibition [15]: 20%
Relative potency [16]: 0.9

SMILES: O=C1C[C@H](O)CC(CCC23CC4CC(CC(C4)C2)C3)O1 (stereo partly specified)
inhibition [7]: 16%
inhibition [21]: 28%
inhibition [18]: 18%

SMILES: O=C1C[C@H](O)CC(c2cccc3ccccc23)O1 (stereo partly specified)
inhibition [10]: 7%
inhibition [11]: 18%
inhibition [7]: 16%
inhibition [8]: 9%

SMILES: O=C1C[C@H](O)C[C@@H](/C=C/c2cccc3ccc4ccccc4c23)O1
inhibition [23]: 39%
inhibition [24]: 58%
IC50 [13]: 1.9 µM
inhibition [25]: 64%
Relative potency [16]: 1.1

SMILES: O=C1C[C@H](O)CC(CCC2CCCCC2)O1 (stereo partly specified)
inhibition [10]: 17%
inhibition [11]: 34%
inhibition [7]: 23%
inhibition [8]: 6%

SMILES: O=C1C[C@H](O)CC(CC[C@@H]2CC[C@H]3CCCC[C@@H]3C2)O1 (stereo partly specified)
IC50 [13]: 90 µM
inhibition [7]: 13%
inhibition [21]: 28%
inhibition [18]: 1%
